How the values were obtained:
[1] = Regression model of nutritional supplements and PD progression (PRO-PD score); format: in vivo, human; conditions: positive report of consistently using supplement over the previous 6 months, adjusted for years since diagnosis; for Mean change in PRO-PD score (SE)*: age, and gender; for Mean change in PRO-PD score (SE)**: age, gender, and income
From the text: When the diagnosis comes 10-15 years or more into the disease, the contribution or effectiveness of a disease-modifying therapy is diminished. Conversely, early detection and intervention by disease-modifying therapies can reduce rate of PD progression or delay disease onset. […] As used herein, PRO-PD is the Patient Reported Outcomes in Parkinson's Disease rating scale, which is used to describe PD disease severity among individuals with a clinical diagnosis of PD.
Certain foods and supplements are known to be associated with different rates of PD progression.

[2] = supplements / pharmaceuticals said to have been shown to slow or reduce progression; cited from earlier work

Compound	Mean change in PRO-PD score (SE)* [1]	Mean change in PRO-PD score (SE)** [1]	Effect on PD progression (statement in words) [2]
CN1c2c(nc(N)[nH]c2=O)NCC1CNc1ccc(C(=O)N[C@@H](CCC(=O)O)C(=O)O)cc1 (stereo partly drawn) [5-Methyltetrahydrofolate (5-MTHF), 5-Methyltetrahydrofolate]	−17.1	−25.1	–
[Ca+2] [Calcium]	−6.2	12.5	–
COC1=C(OC)C(=O)C(C/C=C(\C)CC/C=C(\C)CC/C=C(\C)CC/C=C(\C)CC/C=C(\C)CC/C=C(\C)CC/C=C(\C)CC/C=C(\C)CC/C=C(\C)CCC=C(C)C)=C(C)C1=O [CoQ10, coenzyme Q-10]	–	–	slow the progression of PD
C[C@]12CC[C@H](O)CC1=CC[C@@H]1[C@@H]2CC[C@]2(C)C(=O)CC[C@@H]12 [DHEA, dehydroepiandrosterone]	–	–	slow the progression of PD
N[C@@H](CCC(=O)N[C@@H](CS)C(=O)NCC(=O)O)C(=O)O [Glutathione, oral, glutathione]	–	–	slow the progression of PD
O=C1CC[C@@]2(O)[C@H]3Cc4ccc(O)c5c4[C@@]2(CCN3CC2CC2)[C@H]1O5 [Low-dose naltrexone, naltrexone]	–	–	reduce the rate of progression
NC(=O)C1=CN([C@@H]2O[C@H](COP(=O)(O)OP(=O)(O)OC[C@H]3O[C@@H](n4cnc5c(N)ncnc54)[C@H](O)[C@@H]3O)[C@@H](O)[C@H]2O)C=CC1 [NADH]	−9.7	−25.2	–
N[C@@H](Cc1ccc(O)c(O)c1)C(=O)O [levodopa]	–	–	reduce the rate of progression
C#CCN[C@@H]1CCc2ccccc21 [rasagiline]	–	–	reduce the rate of progression
C#CCN(C)[C@H](C)Cc1ccccc1 [selegeline]	–	–	reduce the rate of progression
Vitamin D	−26.1	−3.6	–
